Measurements as given in article PMC8284440, “Toward New Transmission-Blocking Combination Therapies: Pharmacokinetics of 10-Amino-Artemisinins and 11-Aza-Artemisinin and Comparison with Dihydroartemisinin and Artemether” (Antimicrobial Agents and Chemotherapy, 2021).

What was measured:
[1] = Metabolic stability in pooled human liver microsomes; design: CLint scaled: dose or concentration left out as unconfirmed; conditions: for half-life at 0.4 mM / CLint scaled: human
Description: (ii) Metabolic stability in liver microsomes. The metabolic stability assay was performed in duplicate using 96-deepwell plates. Each compound (0.4 mM) was incubated individually in mouse, rat, and pooled human liver microsomes (0.4 mg/ml) at 37°C in the presence and absence of the cofactor NADPH (1 mM). An aliquot was taken at 0, 5, 10, 30, and 60 min, and the reaction was quenched by adding 300 μl of ice-cold acetonitrile containing the internal standard carbamazepine (0.0236 μg/ml) ([88]). The test compounds in the supernatant were analyzed by means of LC-MS/MS as described in “Sample analysis” below. The normalized data for each sample were used to calculate the in vitro half-life, intrinsic clearance rate, and hepatic extraction ratio from the results of this assay using the following equations ([88]).Equation 1. Normalized area. (1) Normalized area=(Peak area of sample at time point/Peak area of internal standard) Equation 2. Percent parent remaining. (2) % Parent=Normalized peak area of sample at time point/Normalized peak area of sample at t=0×100 Equation 3. Calculated t1/2. (3) t1/2=−0.693/λ where λ is the slope of the ln (% parent remaining) versus time curve of the compound.Equation 4. CLint. (4) CLint=[0.693/t1/2(min)]×[Volume of incubation (μl)/Microsomal protein (μg)] Equation 5. Hepatic extraction ratio. (5) EH=fu×CLint/QH + fu×CLint
(§1) Sample extraction. […] The organic layer was then transferred and evaporated under a gentle stream of nitrogen at room temperature for 30 min. The dried samples were reconstituted in mobile phase, and a 5 μl sample was injected for LC-MS/MS analysis. The only exception was the arylurea 10, for which no liquid-liquid extraction was conducted; instead, the 200 μl acetonitrile solution was evaporated under a gentle stream of nitrogen at room temperature. The dried sample was reconstituted in the mobile phase, and a 5 μl sample was injected for LC-MS/MS analysis. The plasma samples for each compound from the in vivo studies were extracted by mixing 350 μl ethyl acetate with 15 μl of plasma sample and 35 μl of universal buffer containing internal standard at pH 8. The samples were vortexed for 1 min and centrifuged for 5 min, and the organic layer was then transferred and evaporated under a gentle stream of nitrogen at room temperature for 30 min. The dried samples were each reconstituted in the mobile phase, and a 5 μl sample was injected for LC-MS/MS analysis.
(§2) LC-MS/MS analysis. For all the artemisinins except the arylurea 10, gradient chromatography was performed on a Phenomenex (Torrance, CA, USA) Luna PFP(2) analytical column (100 Å, 5 μm, 2 by 50 mm) and an AB Sciex API 5500 mass spectrometer which was operated at unit resolution in the multiple reaction monitoring (MRM) mode. The HPLC method used was a gradient method with 5 mM ammonium acetate and 0.1% acetic acid in water as the aqueous phase and a mixture of acetonitrile and methanol (1:1 vol/vol) containing 5% of the aqueous phase as the organic phase ([89]). The arylurea 10 was analyzed using a Phenomenex Gemini NX-C18 (5 μm, 2.1 mm by 50 mm) column with an AB Sciex 3200 QTRAP mass spectrometer operated at unit resolution in the MRM mode. The HPLC method used was a gradient method with 5 mM ammonium acetate and 0.1% acetic acid in water as the aqueous phase and a mixture of acetonitrile and methanol (1:1 vol/vol). The transitions of the molecular ions were monitored, as listed in Table S8 in the supporting information. The calibration range was between 0.002 μg/ml and 6.250 μg/ml. Data acquisition and evaluation were performed using Analyst 1.6.2 software (Applied Biosystems, Foster City, CA, USA). The formation of the putative metabolite DHA from the amino-artemisinins and the metabolite M1 of artemisone were evaluated in these mice PK studies; the MRM transitions of DHA and M1 (Table S8) were thus included in the LC-MS/MS assays.

[2] = Pharmacokinetics in mice, oral administration; format: in vivo, male C57/BL6 mice; conditions: for bioavailability / Cmax / Tmax: male, C57/BL6, mouse, plasma; for bioavailability: 50 mg/kg; for bioavailability / F: oral bioavailability, p.o. 50 mg/kg vs i.v. 10 mg/kg; for Cmax / Tmax / AUC: p.o. 50 mg/kg, parent; for AUC: 0 h to last
Description: (i) Animals. Healthy male C57/BL6 mice each weighing approximately 25 g were used. The mice maintained at the University of Cape Town animal facility were housed in 27 by 21 by 18 cm cages, under controlled environmental conditions at 22 ± 2°C and a 12-h light/dark cycle. Humidity was monitored and ranged between 55 and 70%. Food and water were available ad libitum. Mice were acclimatized to their environment for 7 days before experiments were initiated.
(ii) Oral drug administration. Each of artemether, the amino-artemisinins 5 to 10, and 11-aza-artemisinin 11 (12.5 mg) was dissolved in 0.2 ml DMSO, to which 1.8 ml 0.5% (wt/vol) HPMC in water was then added. Compounds were administered orally via gavage at a dose of 50 mg/kg (n = 3). Dosing volumes were calculated based on the weight of each mouse in the respective group. The dosing volumes ranged between 160 μl and 200 μl, ensuring that the dose remained at 50 mg/kg. Blood samples for amino-artemisinins 5 to 8 and 10 were collected via tail-bleeding predose and at 0.08, 0.25, 0.5, 1, 2, and 4 h. Blood samples for the phenylurea 9 and 11-aza-artemisinin 11 were collected at 0.08, 0.5, 1, 2, 4, 8, and 24 h postdose. Samples were placed in 0.5 ml lithium heparin micro vials to prevent blood coagulation. […] The samples were immediately centrifuged at 5,590 × g for 5 min and the plasma was transferred to new microvials. The plasma samples were stored at −80°C.
as §1
as §2, with “μg/ml.” for “μg/ml. Data acquisition and evaluation were performed using Analyst 1.6.2 software (Applied Biosystems, Foster City, CA, USA). The formation of the putative metabolite DHA from the amino-artemisinins and the metabolite M1 of artemisone were evaluated in these mice PK studies; the MRM transitions of DHA and M1 (Table S8) were thus included in the LC-MS/MS assays.”

[3] = metabolite formed from p.o. artemiside 5, 50 mg/kg

AUC of metabolite ([2]; metabolite formed from p.o. artemisone 6, 50 mg/kg) [min/µmol/L]	SMILES	Stability in HLM ([1]; human liver microsomes)	half-life at 0.4 mM ([1]; pooled liver microsomes) [min]	bioavailability ([2]; oral) [%]	bioavailability ([2]; po) [%]	Cmax ([2]; po) [nM]	Tmax ([2]; po) [min]	F [2] [%]	AUC [2]	Hepatic extraction ratio EH Human ([1]; human liver microsomes)	half-life at 0.4 mM ([1]; microsomes) [min]	CLint scaled ([1]; pooled liver microsomes) [mL/min/kg]	AUC of metabolite [2, 3] [min/µmol/L]	AUC of metabolite ([2]; metabolite formed from p.o. artemether 3, 50 mg/kg) [min/µmol/L]
	C[C@@H]1CC[C@H]2[C@@H](C)C(=O)N[C@@H]3O[C@@]4(C)CC[C@@H]1[C@]32OO4 [11-Aza-artemisinin 11, 11-aza-artemisinin]	stable throughout the experiment	60	7	14	2600 ± 10	30	7.15 ± 0.3	154.9 ± 10 min/µmol/L					
	CO[C@H]1O[C@@H]2O[C@@]3(C)CC[C@H]4[C@H](C)CC[C@@H]([C@H]1C)[C@@]24OO3 [Artemether 3, artemether]				2 ± 0.6	600 ± 200	6		32.3 ± 20 min/µmol/L	0.9	12.5	172		
	C[C@H]1[C@H](N2CCSCC2)O[C@@H]2O[C@@]3(C)CC[C@H]4[C@H](C)CC[C@@H]1[C@@]24OO3 [Artemiside 5, artemiside]		< 10		1 ± 0.2	100 ± 10	60 ± 54		9.5 ± 2.5 min/µmol/L	1.0		451		
	C[C@H]1[C@H](N2CCS(=O)(=O)CC2)O[C@@H]2O[C@@]3(C)CC[C@H]4[C@H](C)CC[C@@H]1[C@@]24OO3 [Artemisone 6, artemisone]		< 10		32	8000 ± 800	18 ± 6	34 ± 7.5	922.7 ± 348 min/µmol/L	0.9		243	101.5 ± 49	
	C[C@H]1[C@H](N2CCN(C(=O)Nc3ccc(F)cc3)CC2)O[C@@H]2O[C@@]3(C)CC[C@H]4[C@H](C)CC[C@@H]1[C@@]24OO3 [Arylurea 10]		< 10		17.5 ± 3.1	2300 ± 300	30		276.5 ± 48.4 min/µmol/L	0.6		531		
	C[C@H]1[C@@H](O)O[C@@H]2O[C@@]3(C)CC[C@H]4[C@H](C)CC[C@@H]1[C@@]24OO3 [DHA 2, dihydroartemisinin]		51.7							0.7		41.5		77 ± 12
173.3 ± 51.7	C[C@H]1[C@H](N2C=CS(=O)(=O)CC2)O[C@@H]2O[C@@]3(C)CC[C@H]4[C@H](C)CC[C@@H]1[C@@]24OO3 [M1 12]		> 150										20.8 ± 8	
	C[C@H]1[C@H](NS(N)(=O)=O)O[C@@H]2O[C@@]3(C)CC[C@H]4[C@H](C)CC[C@@H]1[C@@]24OO3 [Sulfamide 7]		> 150		59	21700 ± 1200	36 ± 12	59.3 ± 11.6	2,562.3 ± 499 min/μmol/liter	0.2		5.6		
